Assays:
sulphonamide antibodies [1] = test: Multi-sulphonamide competitive immunoassay in microchannels, chemiluminescent CCD detection (Example 3); format: binding; conditions: microchannel device, 2 minutes incubation
Experimental: In contrast to Example 1, a multi-sulphonamide assay has also been conducted using microchannels. The device is illustrated in Figure 11. In this Example, the reagent addition reservoirs 21 are 2 mm x 2 mm, and 300 µm deep (vol. 1.2 µl), the channels 23 are each 5 mm long, 200 µm wide and 100 µm deep (vol. 100 nl), and the reservoir 24 is 1.9 mm x 8.6 mm, and 300 µm deep (vol. 4.9 µl).
The chemical modification of the surface was performed as described in Example 1. Antibody was added to each of the channels and incubated for 2 hours at 37°C. The substrates were then blocked and washed as for Example 1.
A multi-sulphonamide standard (200 µl) and sulphonamide horseradish pexoxidase conjugates (100 µl) were mixed. 1 µl of the resultant reagent was pipetted into each of the reservoirs supplying the antibody-coated channel for each sulphonamide. The standards contained 10 or 100 ng/ml of all the sulphonamides as appropriate.
The reagent flowed by capillary action. After incubation for 2 minutes, the substrate was washed 5 times with PBS/PEG and chemiluminescent reagent [luminol (1.4 mM)/urea hydrogen peroxide (9.6 mM)] was added.
The devices were imaged using a CCD camera with an exposure time of up to 4 minutes.

sulphonamide antibodies [2] = test: Multi-sulphonamide competitive immunoassay, antibodies on APTES ceramic substrates with dihydrazide linker, with or without periodate activation; format: binding
Experimental: Multi-sulphonamide standards (200 µl) and a cocktail of sulphonamide horseradish peroxidase conjugates (100 µl) were added to the reaction wells containing the device as appropriate and incubated for 15 minutes at room temperature. The standards contained 5, 10, 50 and 100 ng/ml for each of the 12 sulphonamides.
Thereafter the multi-sulphonamide devices were washed with PBS/PEG buffer to remove excess reagents and 300 µl chemiluminescent substrate [luminol (1.4mM)/urea hydrogen peroxide (9.6mM)] per device was introduced. The devices were imaged using a CCD camera with an exposure time of up to 4 minutes. Standard curves were obtained for each of the 12 individual sulphonamides. Calibration curves for each of the 12 individual sulphonamides are represented graphically in Figure 15. The % B/Bo value plotted on the Y-axis represents the % […] of the zero standard RLU (Relative light unit) value caused by each individual sulphonamide standard (plotted on the X-axis as log10).
In a further example, ceramic substrates silanated with APTES were reacted with a dihydrazide linker. Sulphonamide antibodies were treated with sodium periodate to render them reactive towards the hydrazide linker. Control sulphonamide antibodies were simply dialysed against sodium acetate buffer pH 5.5. The RLU results are shown in Tables 4 (not treated) and 5 (treated by periodate method). […] The control antibodies (no periodate activation) gave very poor standard curves when compared to the covalently immobilised sulphonamide antibodies.

[3] = 10 ng/ml standard, antibodies treated by periodate method, covalently immobilised (Table 5)
[4] = 100 ng/ml standard, antibodies treated by periodate method, covalently immobilised (Table 5)
[5] = 10 ng/ml standard, control antibodies not treated with periodate (Table 4)
[6] = 100 ng/ml standard, control antibodies not treated with periodate (Table 4)

SMILES: Cc1cc(C)nc(NS(=O)(=O)c2ccc(N)cc2)n1 [Sulphamethazine, sulphamethazine]
- % B/Bo (sulphonamide antibodies [1]; 10 ng/ml standard): 14%
- % B/Bo (sulphonamide antibodies [1]; 100 ng/ml standard): 7%
- % B/Bo (sulphonamide antibodies [2]; [3]): 77%
- % B/Bo (sulphonamide antibodies [2]; [4]): 61%

SMILES: Cc1noc(NS(=O)(=O)c2ccc(N)cc2)c1C [Sulphisoxazole, sulphisoxazole]
- % B/Bo (sulphonamide antibodies [2]; [3]): 27%
- % B/Bo (sulphonamide antibodies [2]; [5]): 23%
- % B/Bo (sulphonamide antibodies [2]; [4]): 9%

SMILES: COc1ncnc(NS(=O)(=O)c2ccc(N)cc2)c1OC [Sulphadoxine, sulphadoxine]
- % B/Bo (sulphonamide antibodies [2]; [3]): 31%
- % B/Bo (sulphonamide antibodies [2]; [5]): 51%
- % B/Bo (sulphonamide antibodies [2]; [4]): 20%

SMILES: Nc1ccc(S(=O)(=O)Nc2ccc(Cl)nn2)cc1 [Sulphachloropyridazine, sulphachloropyridazine]
- % B/Bo (sulphonamide antibodies [2]; [3]): 30%
- % B/Bo (sulphonamide antibodies [2]; [5]): 24%
- % B/Bo (sulphonamide antibodies [2]; [4]): 8%

SMILES: COc1cc(NS(=O)(=O)c2ccc(N)cc2)nc(OC)n1 [Sulphadimethoxine, sulphadimethoxine]
- % B/Bo (sulphonamide antibodies [2]; [3]): 46%
- % B/Bo (sulphonamide antibodies [2]; [4]): 36%
- % B/Bo (sulphonamide antibodies [2]; [6]): 97%

SMILES: COc1ccc(NS(=O)(=O)c2ccc(N)cc2)nn1 [Sulphamethoxypyridazine, sulphamethoxypyridazine]
- % B/Bo (sulphonamide antibodies [1]; 10 ng/ml standard): 28%
- % B/Bo (sulphonamide antibodies [1]; 100 ng/ml standard): 15%
- % B/Bo (sulphonamide antibodies [2]; [3]): 74%
- % B/Bo (sulphonamide antibodies [2]; [5]): 84%
- % B/Bo (sulphonamide antibodies [2]; [4]): 40%

SMILES: Nc1ccc(S(=O)(=O)Nc2cnc3ccccc3n2)cc1 [Sulphaquinoxaline, sulphaquinoxaline]
- % B/Bo (sulphonamide antibodies [1]; 10 ng/ml standard): 56%
- % B/Bo (sulphonamide antibodies [1]; 100 ng/ml standard): 24%
- % B/Bo (sulphonamide antibodies [2]; [3]): 58%
- % B/Bo (sulphonamide antibodies [2]; [5]): 79%
- % B/Bo (sulphonamide antibodies [2]; [4]): 53%
- % B/Bo (sulphonamide antibodies [2]; [6]): 93%

SMILES: Nc1ccc(S(=O)(=O)Nc2nccs2)cc1 [Sulphathiazole, sulphathiazole]
- % B/Bo (sulphonamide antibodies [2]; [3]): 32%
- % B/Bo (sulphonamide antibodies [2]; [5]): 28%
- % B/Bo (sulphonamide antibodies [2]; [4]): 16%

SMILES: Cc1ccnc(NS(=O)(=O)c2ccc(N)cc2)n1 [Sulphamerazine, sulphamerazine]
- % B/Bo (sulphonamide antibodies [1]; 10 ng/ml standard): 40%
- % B/Bo (sulphonamide antibodies [1]; 100 ng/ml standard): 22%
- % B/Bo (sulphonamide antibodies [2]; [3]): 43%
- % B/Bo (sulphonamide antibodies [2]; [5]): 52%
- % B/Bo (sulphonamide antibodies [2]; [4]): 26%
- % B/Bo (sulphonamide antibodies [2]; [6]): 56%

SMILES: Cc1nnc(NS(=O)(=O)c2ccc(N)cc2)s1 [Sulphamethizole, sulphamethizole]
- % B/Bo (sulphonamide antibodies [2]; [3]): 33%
- % B/Bo (sulphonamide antibodies [2]; [5]): 36%
- % B/Bo (sulphonamide antibodies [2]; [4]): 28%
